{
  "source": "paper PMC3224040",
  "about": "(ACS medicinal chemistry letters, 2011)",
  "key": {"D2 receptor": {"target": "D2 receptor (Rattus norvegicus, UniProt P61169)", "sequence (P61169 whole entry)": "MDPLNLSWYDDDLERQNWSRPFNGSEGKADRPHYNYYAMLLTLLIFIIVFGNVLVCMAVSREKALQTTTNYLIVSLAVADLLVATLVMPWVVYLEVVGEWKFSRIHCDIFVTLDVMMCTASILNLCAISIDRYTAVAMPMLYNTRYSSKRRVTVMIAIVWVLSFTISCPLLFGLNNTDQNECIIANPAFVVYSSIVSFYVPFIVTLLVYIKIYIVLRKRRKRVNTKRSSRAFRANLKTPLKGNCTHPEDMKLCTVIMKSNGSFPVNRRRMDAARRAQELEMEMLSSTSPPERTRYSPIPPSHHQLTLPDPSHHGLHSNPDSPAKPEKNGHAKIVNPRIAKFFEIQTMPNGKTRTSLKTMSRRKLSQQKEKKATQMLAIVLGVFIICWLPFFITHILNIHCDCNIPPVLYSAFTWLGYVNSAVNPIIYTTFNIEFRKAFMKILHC", "details": "for Decrease in core body temperature: pretreatment of L-741,626 at 1 mg/kg; for Dose at onset of modest D2 agonist activity: yawning and hypothermia data"}, "dopamine D3 receptor": {"target": "dopamine D3 receptor (Rattus norvegicus, UniProt P19020)", "sequence (P19020 whole entry)": "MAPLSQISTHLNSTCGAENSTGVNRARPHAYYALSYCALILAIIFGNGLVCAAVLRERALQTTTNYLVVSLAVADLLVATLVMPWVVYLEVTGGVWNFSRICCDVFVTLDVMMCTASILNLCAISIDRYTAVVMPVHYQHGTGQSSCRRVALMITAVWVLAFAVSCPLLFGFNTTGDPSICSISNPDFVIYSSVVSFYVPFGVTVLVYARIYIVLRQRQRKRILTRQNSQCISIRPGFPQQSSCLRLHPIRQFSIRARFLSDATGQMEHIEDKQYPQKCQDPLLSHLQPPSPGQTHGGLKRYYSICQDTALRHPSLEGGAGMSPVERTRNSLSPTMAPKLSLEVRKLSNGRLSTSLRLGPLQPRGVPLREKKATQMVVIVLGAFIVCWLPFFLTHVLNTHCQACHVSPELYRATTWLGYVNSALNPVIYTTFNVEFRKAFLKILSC", "assay": "Yawning assay in rats", "details": "for High doses at which D2 agonist effects may be observed: antagonist interaction study in yawning assay"}, "D3 receptor [1]": {"test_system": "D3 receptor", "details": "cited from earlier work; for Selectivity for D3 over D2: D3 antagonists; for Selectivity over the D2 receptor: D3 agonists, in vitro binding data"}, "[2]": {"details": "cited from earlier work"}, "D3 receptor [3]": {"target": "D3 receptor (Rattus norvegicus, UniProt P19020)", "sequence (P19020 whole entry)": "as above", "details": "rat brain binding, ratio of Ki values"}, "human D1 receptor": {"target": "human D1 receptor (Homo sapiens, UniProt P21728)", "sequence (P21728 whole entry)": "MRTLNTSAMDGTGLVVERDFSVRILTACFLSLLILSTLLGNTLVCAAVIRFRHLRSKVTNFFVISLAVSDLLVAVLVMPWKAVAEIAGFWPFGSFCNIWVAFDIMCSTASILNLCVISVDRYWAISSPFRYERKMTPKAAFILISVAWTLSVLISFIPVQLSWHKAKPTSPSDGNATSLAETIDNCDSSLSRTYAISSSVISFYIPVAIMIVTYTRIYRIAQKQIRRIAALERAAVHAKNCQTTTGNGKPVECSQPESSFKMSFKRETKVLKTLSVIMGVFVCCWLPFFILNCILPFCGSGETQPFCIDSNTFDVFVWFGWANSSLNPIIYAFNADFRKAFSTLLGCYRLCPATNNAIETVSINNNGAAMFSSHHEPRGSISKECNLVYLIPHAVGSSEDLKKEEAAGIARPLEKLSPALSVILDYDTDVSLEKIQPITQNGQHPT", "assay": "Binding to cloned human D1 receptor", "details": "at 10,000 nM"}, "Aqueous solubility": {"assay": "Aqueous solubility", "assay_type": "physicochemical", "details": "aqueous medium (not further specified)"}},
  "note": "Where two headings read alike, the source gives them in different places.",
  "data": [
    {"compound": "OC1(c2ccc(Cl)cc2)CCN(Cc2c[nH]c3ccccc23)CC1", "note": "[L-741,626]", "values": [
      {"measurement": "Effect of antagonist on hypothermia induced by compound 17", "setting": "D2 receptor; 10 mg/kg compound 17", "result": "did not have a significant effect"},
      {"measurement": "Effect of antagonist on hypothermia induced by pramipexole", "setting": "D2 receptor; in vivo, 0.32 mg/kg", "result": "significantly reversed"},
      {"measurement": "Effect of antagonist on yawning induced by lower agonist doses", "setting": "dopamine D3 receptor; pramipexole 0.1 mg/kg and 17 1.0 mg/kg", "result": "failed to modulate"}
    ]},
    {"compound": "Cc1nc(-c2cccc(C(=O)NC3CCC(CCN4CCc5ccc(S(C)(=O)=O)cc5CC4)CC3)c2)no1", "note": "(centres unmarked) [Compound 5]", "values": [
      {"measurement": "Selectivity for D3 over D2", "setting": "D3 receptor [1]", "result": "≤ 100", "unit": "fold"}
    ]},
    {"compound": "CCCN(CC[C@H]1CC[C@H](NC(=O)/C=C/c2ccccc2)CC1)[C@H]1CCc2nc(N)sc2C1", "note": "[Compound 10]", "values": [
      {"measurement": "Aqueous solubility", "setting": "[2]", "result": "> 50", "unit": "mg/mL"}
    ]},
    {"compound": "CCCN[C@H]1CCc2nc(N)sc2C1", "note": "[Compound 1, Pramipexole]", "values": [
      {"measurement": "Decrease in core body temperature", "setting": "D2 receptor; 0.32 mg/kg", "result": "approximately 0.75 °C"},
      {"measurement": "Effect on core body temperature", "setting": "D2 receptor; doses of 0.32 and 1.0 mg/kg", "result": "significant decreases"},
      {"measurement": "Dose at onset of modest D2 agonist activity", "setting": "D2 receptor", "result": 0.32, "unit": "mg/kg"},
      {"measurement": "High doses at which D2 agonist effects may be observed", "setting": "dopamine D3 receptor", "result": "~ 1.0 mg/kg"}
    ]},
    {"compound": "CCCN(CC[C@H]1C[C@@H](NC(=O)c2ccc3ccccc3c2)C1)[C@H]1CCc2nc(N)sc2C1", "note": "[Compound 15]", "values": [
      {"measurement": "Selectivity D1-like/D3", "setting": "D3 receptor [3]", "result": "8,822"}
    ]},
    {"compound": "O=C(NCCCCN1CCN(c2cccc(Cl)c2Cl)CC1)c1ccc2c(c1)Cc1ccccc1-2", "note": "[Compound 6]", "values": [
      {"measurement": "Selectivity for D3 over D2", "setting": "D3 receptor [1]", "result": "≤ 100", "unit": "fold"}
    ]},
    {"compound": "CCCN(CC[C@]1(O)CC[C@H](NC(=O)c2ccc3ccccc3c2)CC1)[C@H]1CCc2nc(N)sc2C1", "note": "[Compound 13]", "values": [
      {"measurement": "Selectivity D1-like/D3", "setting": "D3 receptor [3]", "result": "15,115"}
    ]},
    {"compound": "CCCN(CC[C@H]1CC[C@H](NC(=O)c2ccc3ccccc3c2)CC1)[C@H]1CCc2nc(N)sc2C1", "note": "[Compound 11]", "values": [
      {"measurement": "Aqueous solubility", "setting": "[2]", "result": "> 50", "unit": "mg/mL"}
    ]},
    {"compound": "CCCN(CC[C@]1(O)C[C@H](NC(=O)c2ccc3ccccc3c2)C1)[C@H]1CCc2nc(N)sc2C1", "note": "[Compound 17]", "values": [
      {"measurement": "Binding to human D1 receptor", "setting": "human D1 receptor", "result": "no detectable binding"},
      {"measurement": "solubility", "setting": "Aqueous solubility", "result": "> 100", "unit": "mg/mL"},
      {"measurement": "Effect on core body temperature", "setting": "D2 receptor; 3.2 mg/kg", "result": "no significant effect"},
      {"measurement": "Effect on core body temperature", "setting": "D2 receptor; 10 mg/kg", "result": "significant but a modest effect"},
      {"measurement": "Decrease in core body temperature", "setting": "D2 receptor; 10 mg/kg", "result": "approximately 0.75 °C"},
      {"measurement": "Dose at onset of modest D2 agonist activity", "setting": "D2 receptor", "result": 10, "unit": "mg/kg"},
      {"measurement": "Dose producing peak levels of yawning", "setting": "dopamine D3 receptor", "result": 1.0, "unit": "mg/kg"},
      {"measurement": "High doses at which D2 agonist effects may be observed", "setting": "dopamine D3 receptor", "result": "~ 10.0 mg/kg"},
      {"measurement": "Dose active at the D3 receptor (significant yawning activity)", "setting": "dopamine D3 receptor; lowest active dose", "result": 0.01, "unit": "mg/kg"}
    ]},
    {"compound": "CCCN(CC[C@H]1C[C@H](NC(=O)c2ccc3ccccc3c2)C1)[C@H]1CCc2nc(N)sc2C1", "note": "[Compound 14]", "values": [
      {"measurement": "Selectivity D1-like/D3", "setting": "D3 receptor [3]", "result": "14,848"}
    ]},
    {"compound": "CCCN(CC[C@]1(O)CC[C@@H](NC(=O)c2ccc3ccccc3c2)CC1)[C@H]1CCc2nc(N)sc2C1", "note": "[Compound 12]", "values": [
      {"measurement": "Selectivity D1-like/D3", "setting": "D3 receptor [3]", "result": "7,373"}
    ]},
    {"compound": "CCCN(CC[C@]1(O)C[C@@H](NC(=O)c2ccc3ccccc3c2)C1)[C@H]1CCc2nc(N)sc2C1", "note": "[Compound 16]", "values": [
      {"measurement": "solubility", "setting": "Aqueous solubility", "result": "> 100", "unit": "mg/mL"},
      {"measurement": "Dose producing peak levels of yawning", "setting": "dopamine D3 receptor", "result": 1.0, "unit": "mg/kg"}
    ]},
    {"compound": "CCCN1CCC[C@@H]2Cc3n[nH]cc3C[C@H]21", "note": "[Compound 2, Quinpirole]", "values": [
      {"measurement": "Selectivity over the D2 receptor", "setting": "D3 receptor [1]", "result": "< 100", "unit": "fold"}
    ]},
    {"compound": "CCCN(CCC)C1CCc2ccc(O)cc2C1", "note": "(centres unmarked) [Compound 3, 7-hydroxy dipropylaminotetralin]", "values": [
      {"measurement": "Selectivity over the D2 receptor", "setting": "D3 receptor [1]", "result": "< 100", "unit": "fold"}
    ]},
    {"compound": "N#Cc1ccc2c(c1)CCN(CCC1CCC(NC(=O)c3ccnc4ccccc34)CC1)C2", "note": "(centres unmarked) [Compound 4]", "values": [
      {"measurement": "Selectivity for D3 over D2", "setting": "D3 receptor [1]", "result": "≤ 100", "unit": "fold"}
    ]}
  ]
}
